21 compounds from US10577378B2, “EIF4A-inhibiting compounds and methods related thereto” (eFFECTOR Therapeutics, Inc., priority 2015, dated 2020) can be followed below.

The assay has as its system MDA-MB-231 human breast cancer cells. The assay is described as follows: Cell proliferation assay (CellTiter-Glo, 72 hours treatment). The note with it: Homo sapiens; MDA-MB-231 cells, 72 hours at 37° C., CellTiter-Glo; read-out: MDA-MB-231 cell proliferation assay (IC50). Type of assay: cell-based. A digest of the protocol:
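MDA-MB-231 cells seeded at 2,500 cells/well, treated next day with compound or DMSO vehicle for 72 h at 37 °C. Proliferation read by CellTiter-Glo; IC50 from sigmoidal non-linear regression, binned as +++ (<100 nM), ++ (100–1000 nM), + (>1000 nM).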

In the case of `COc1cncc2c1[C@]1(O)[C@H](O)[C@H](CNC3CC3)[C@@H](c3ccccc3)[C@]1(c1ccc(C#N)cc1)O2` (racemic) [244F, Rac-4-((4bS,5R,6S,7S,7aR)-6-((cyclopropylamino)methyl)-4b,5-dihydroxy-4-methoxy-7-phenyl-4b,5,6,7-tetrahydro-7aH-cyclopenta[4,5]furo[2,3-c]pyridin-7a-yl)benzonitrile], the IC50 is < 100 nM.
As for `COc1cncc2c1[C@]1(O)[C@H](O)[C@H](C(=O)N(C)C3CC3)[C@@H](c3ccccc3)[C@]1(c1ccc(Br)cc1)O2` (racemic) [245F, Rac-(4bS,5R,6R,7S,7aR)-7a-(4-bromophenyl)-N-cyclopropyl-4b,5-dihydroxy-4-methoxy-N-methyl-7-phenyl-4b,6,7,7a-tetrahydro-5H-cyclopenta[4,5]furo[2,3-c]pyridine-6-carboxamide], the IC50 was 100 to 1000 nM.
The same measure for `COc1cncc2c1[C@]1(O)[C@H](O)[C@H](CN(C)C3CC3)[C@@H](c3ccccc3)[C@]1(c1ccc(C#N)cc1)O2` (racemic) [246F, Rac-4-((4bS,5R,6S,7S,7aR)-6-((cyclopropyl(methyl)amino)methyl)-4b,5-dihydroxy-4-methoxy-7-phenyl-4b,5,6,7-tetrahydro-7aH-cyclopenta[4,5]furo[2,3-c]pyridin-7a-yl)benzonitrile]: 100 to 1000 nM; for `COc1cncc2c1[C@]1(O)[C@H](O)[C@H](C(=O)N(C)CCF)[C@@H](c3ccccc3)[C@]1(c1ccc(Br)cc1)O2` (racemic) [247F, Rac-(4bS,5R,6R,7S,7aR)-7a-(4-bromophenyl)-N-(2-fluoroethyl)-4b,5-dihydroxy-4-methoxy-N-methyl-7-phenyl-4b,6,7,7a-tetrahydro-5H-cyclopenta[4,5]furo[2,3-c]pyridine-6-carboxamide]: < 100 nM.
Consider `COc1cncc2c1[C@]1(O)[C@H](O)[C@H](C(=O)N(C)Cc3ccnn3C)[C@@H](c3ccccc3)[C@]1(c1ccc(Br)cc1)O2` (racemic) [249F, Rac-(4bS,5R,6R,7S,7aR)-7a-(4-bromophenyl)-4b,5-dihydroxy-4-methoxy-N-methyl-N-((1-methyl-1H-pyrazol-5-yl)methyl)-7-phenyl-4b,6,7,7a-tetrahydro-5H-cyclopenta[4,5]furo[2,3-c]pyridine-6-carboxamide], for which the IC50 was < 100 nM.
Turning to `COc1cncc2c1[C@]1(O)[C@H](O)[C@H](C(=O)N(C)CC(C)(C)O)[C@@H](c3ccccc3)[C@]1(c1ccc(Br)cc1)O2` (racemic) [251F, Rac-(4bS,5R,6R,7S,7aR)-7a-(4-bromophenyl)-4b,5-dihydroxy-N-(2-hydroxy-2-methylpropyl)-4-methoxy-N-methyl-7-phenyl-4b,6,7,7a-tetrahydro-5H-cyclopenta[4,5]furo[2,3-c]pyridine-6-carboxamide], the IC50 is < 100 nM.
The same measure for `COc1cncc2c1[C@]1(O)[C@H](O)[C@H](C(=O)NCC(C)(C)O)[C@@H](c3ccccc3)[C@]1(c1ccc(Br)cc1)O2` (racemic) [253F, Rac-(4bS,5R,6R,7S,7aR)-7a-(4-bromophenyl)-4b,5-dihydroxy-N-(2-hydroxy-2-methylpropyl)-4-methoxy-7-phenyl-4b,6,7,7a-tetrahydro-5H-cyclopenta[4,5]furo[2,3-c]pyridine-6-carboxamide]: < 100 nM.
As for `COc1cncc2c1[C@]1(O)[C@H](O)[C@H](C(=O)N(C)C)[C@@H](c3ccccc3)[C@]1(c1ccc(C)cc1)O2` (racemic) [255F, rac-(4bS,5R,6R,7S,7aR)-4b,5-dihydroxy-4-methoxy-N,N-dimethyl-7-phenyl-7a-(p-tolyl)-4b,6,7,7a-tetrahydro-5H-cyclopenta[4,5]furo[2,3-c]pyridine-6-carboxamide], the IC50 lay in the range of 100 to 1000 nM.
The same measure for `COc1cncc2c1[C@]1(O)[C@H](O)[C@H](C(=O)N3CCCCC3)[C@@H](c3ccccc3)[C@]1(c1ccc(Br)cc1)O2` (racemic) [257F, Rac-((4bS,5R,6R,7S,7aR)-7a-(4-bromophenyl)-4b,5-dihydroxy-4-methoxy-7-phenyl-4b,6,7,7a-tetrahydro-5H-cyclopenta[4,5]furo[2,3-c]pyridin-6-yl)(piperidin-1-yl)methanone]: < 100 nM; for `COc1cncc2c1[C@]1(O)[C@H](O)[C@H](CNCCF)[C@@H](c3ccccc3)[C@]1(c1ccc(C#N)cc1)O2` (racemic) [259F, Rac-4-((4bS,5R,6S,7S,7aR)-6-(((2-fluoroethyl)amino)methyl)-4b,5-dihydroxy-4-methoxy-7-phenyl-4b,5,6,7-tetrahydro-7aH-cyclopenta[4,5]furo[2,3-c]pyridin-7a-yl)benzonitrile]: 100 to 1000 nM.
Regarding `COCCN(C)C(=O)[C@H]1[C@@H](O)[C@@]2(O)c3c(OC)cncc3O[C@@]2(c2ccc(Br)cc2)[C@@H]1c1ccccc1` (racemic) [260F, rac-(4bS,5R,6R,7S,7aR)-7a-(4-bromophenyl)-4b,5-dihydroxy-4-methoxy-N-(2-methoxyethyl)-N-methyl-7-phenyl-4b,6,7,7a-tetrahydro-5H-cyclopenta[4,5]furo[2,3-c]pyridine-6-carboxamide], the IC50 was < 100 nM.
For the compound `COCCNC(=O)[C@H]1[C@@H](O)[C@@]2(O)c3c(OC)cncc3O[C@@]2(c2ccc(Br)cc2)[C@@H]1c1ccccc1` (racemic) [262F, Rac-(4bS,5R,6R,7S,7aR)-7a-(4-bromophenyl)-4b,5-dihydroxy-4-methoxy-N-(2-methoxyethyl)-7-phenyl-4b,6,7,7a-tetrahydro-5H-cyclopenta[4,5]furo[2,3-c]pyridine-6-carboxamide], the IC50 is < 100 nM.
With `COc1cncc2c1[C@]1(O)[C@H](O)[C@H](C(=O)N3[C@@H]4CC[C@H]3COC4)[C@@H](c3ccccc3)[C@]1(c1ccc(Br)cc1)O2` (racemic) [264F, Rac-((1R,5S)-3-oxa-8-azabicyclo[3.2.1]octan-8-yl)((4bS,5R,6R,7S,7aR)-7a-(4-bromophenyl)-4b,5-dihydroxy-4-methoxy-7-phenyl-4b,6,7,7a-tetrahydro-5H-cyclopenta[4,5]furo[2,3-c]pyridin-6-yl)methanone], the IC50 was < 100 nM.
As to `COc1cncc2c1[C@]1(O)[C@H](O)[C@H](C(=O)N3[C@@H]4COC[C@H]3C4)[C@@H](c3ccccc3)[C@]1(c1ccc(Br)cc1)O2` (racemic) [266F, Rac-((1R,5S)-3-oxa-6-azabicyclo[3.1.1]heptan-6-yl)((4bS,5R,6R,7S,7aR)-7a-(4-bromophenyl)-4b,5-dihydroxy-4-methoxy-7-phenyl-4b,6,7,7a-tetrahydro-5H-cyclopenta[4,5]furo[2,3-c]pyridin-6-yl)methanone], the IC50 was < 100 nM.
The same measure for `COc1cncc2c1[C@]1(O)[C@H](O)[C@H](CN3[C@@H]4COC[C@H]3C4)[C@@H](c3ccccc3)[C@]1(c1ccc(C#N)cc1)O2` (racemic) [267F, Rac-4-((4bS,5R,6S,7S,7aR)-6-(((1R,5S)-3-oxa-6-azabicyclo[3.1.1]heptan-6-yl)methyl)-4b,5-dihydroxy-4-methoxy-7-phenyl-4b,5,6,7-tetrahydro-7aH-cyclopenta[4,5]furo[2,3-c]pyridin-7a-yl)benzonitrile]: 100 to 1000 nM.
On to `COc1cncc2c1[C@]1(O)[C@@H]3OC(=O)N[C@@H]3[C@@H](c3ccccc3)[C@]1(c1ccc(C(F)F)cc1)O2` (racemic) [269F, rac-(3aR,4R,4aR,9bS,9cR)-4a-(4-(difluoromethyl)phenyl)-9b-hydroxy-9-methoxy-4-phenyl-3,3a,4,4a,9b,9c-hexahydro-2H-oxazolo[4″,5″:4′,5′]cyclopenta[1′,2′:4,5]furo[2,3-c]pyridin-2-one], for which the IC50 is < 100 nM.
With `COc1cncc2c1[C@]1(O)[C@H](O)[C@H](N)[C@@H](c3ccccc3)[C@]1(c1ccc(C(F)F)cc1)O2` (racemic) [270F, Rac-(4bS,5R,6R,7R,7aR)-6-amino-7a-(4-(difluoromethyl)phenyl)-4-methoxy-7-phenyl-5,6,7,7a-tetrahydro-4bH-cyclopenta[4,5]furo[2,3-c]pyridine-4b,5-diol], the IC50 was in the range of 100 to 1000 nM.
As to `COc1cncc2c1[C@]1(O)[C@H](O)[C@H](C(=O)N(C)C)[C@@H](c3ccccc3)[C@]1(c1ccc(Cl)cc1)O2` (racemic) [271F, rac-(4bS,5R,6R,7S,7aR)-7a-(4-chlorophenyl)-4b,5-dihydroxy-4-methoxy-N,N-dimethyl-7-phenyl-4b,6,7,7a-tetrahydro-5H-cyclopenta[4,5]furo[2,3-c]pyridine-6-carboxamide], the IC50 was 100 to 1000 nM.
The same measure for `COc1cncc2c1[C@]1(O)[C@H](O)[C@H](C(=O)N3CC4CC(C3)O4)[C@@H](c3ccccc3)[C@]1(c1ccc(Br)cc1)O2` (racemic) [273F, Rac-(6-oxa-3-azabicyclo[3.1.1]heptan-3-yl)((4bS,5R,6R,7S,7aR)-7a-(4-bromophenyl)-4b,5-dihydroxy-4-methoxy-7-phenyl-4b,6,7,7a-tetrahydro-5H-cyclopenta[4,5]furo[2,3-c]pyridin-6-yl)methanone]: < 100 nM; for `COc1cncc2c1[C@]1(O)[C@@H]3OC(=O)C[C@@H]3[C@@H](c3ccccc3)[C@]1(c1ccc(Br)cc1)O2` (racemic) [275F, Rac-(3aR,4S,4aR,9bS,9cR)-4a-(4-bromophenyl)-9b-hydroxy-9-methoxy-4-phenyl-3,3a,4,4a,9b,9c-hexahydro-2H-furo[3″,2″:4′,5′]cyclopenta[1′,2′:4,5]furo[2,3-c]pyridin-2-one]: < 100 nM.
The same measure for `COc1cncc2c1[C@]1(O)[C@H](O)[C@H](CCN(C)C)[C@@H](c3ccccc3)[C@]1(c1ccc(C#N)cc1)O2` (racemic) [276F, Rac-4-((4bS,5R,6R,7S,7aR)-6-(2-(dimethylamino)ethyl)-4b,5-dihydroxy-4-methoxy-7-phenyl-4b,5,6,7-tetrahydro-7aH-cyclopenta[4,5]furo[2,3-c]pyridin-7a-yl)benzonitrile]: 100 to 1000 nM.
